This note sets out measurements from US10954269B2, “Anti-inflammatory tripeptides” (Dr. August Wolff Gmbh & Co. KG Arzneimittel, priority 2013, dated 2021).

One data set relates to primary murine T cells. In words: Gene expression of pro-inflammatory cytokines (RT-qPCR) in primary murine T cells. The data set is classed as cell-based, C57BL/6 mice. As to conditions: PMA/Ionomycin, 10^−7 M, 10^−9 M and 10^−11 M. From the text: (§1) Cells were activated with PMA/Ionomycin and treated with PBS, α-MSH, K(D)PT and Examples 3, 8 and 9, respectively, at a concentration of 10^−9 M. Values are normalized to β-actin and are shown relative to the gene expression in PBS-stimulated cells.
(§2) Primary T-cells were isolated from peripheral blood from healthy volunteers and from secondary lymphatic organs from naïve C57BL/6 mice, respectively. The cells were stimulated with phorbol-12-myristate-13-acetate (PMA)/Ionomycin and interferon-gamma (IFN-γ), respectively, for 48 h to activate the cells. The activated cells release pro-inflammatory cytokines. In parallel a human (HaCaT) keratinocyte cell line was activated with PMA/Ionomycin and IFN-γ, respectively, too. […] At the same time release of anti-inflammatory IL-10 was inhibited. Two days after addition of PMA/Ionomycin and IFN-γ, respectively, the induction of IL-1 secretion was determined in the supernatant for proving that the cells are activated. […] The anti-inflammatory properties of the tripeptides were determined 48 h and 72 h following stimulation. A 13-plex-system based FACS analysis was used for showing the reduced secretion of pro-inflammatory cytokines in the supernatant. Data for IL-1, IL-2, IL-6, IL-12p70 IL-17, IFN-γ and TNF-α are considered to be most relevant. Thus, analysis of the anti-inflammatory properties of the tripeptides is preferably based on the results obtained for these analytes. […] Using this method the gene expression of pro-inflammatory markers like IL-6, IL-17, IFN-γ and TNF-α was determined.
(§3) In a third experiment murine and human T cells and HaCaT cells were stimulated with PMA/Ionomycin and treated with Examples 14, 15, 16 and 17 at 10^−7 M, 10^−9 M and 10^−11 M. Cytokine concentrations (IFN-γ, IL-17 and IL-10 for T cells and IFN-γ for HaCat) were assessed in the supernatants using the Luminex technology. Expression of genes coding for Il-1β, IL-6 and TNF-α was determined. […] Moreover, concentrations of pro-inflammatory cytokines IFN-γ and IL-17 was reduced in the supernatants whereas the concentration of anti-inflammatory cytokine IL-10 was increased.
(Real-time PCR tracks product formation cycle by cycle.)

The subject of data set [1] is human keratinocyte cell line (HaCaT). In words: Cytokine secretion on protein level in activated human keratinocyte cell line HaCaT (13-plex FACS / Luminex, supernatant). The data set is classed as cell-based. As to conditions: HaCaT; PMA/Ionomycin; Luminex; all tested concentrations. An outline of the steps:
(§4)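 First, T-cells are isolated from healthy donors' blood. Next, they and HaCaT keratinocytes are activated for 48 h with PMA/Ionomycin or IFN-γ in the presence of tripeptides. Finally, secreted cytokines are quantified in supernatants by 13-plex FACS at 48 and 72 h.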

Another data set concerns primary murine T-cells. Briefly: Cytokine secretion on protein level in activated primary murine T-cells (13-plex FACS / Luminex, supernatant). Type of data set: cell-based, C57BL/6 mice. As to conditions: murine T cells; PMA/Ionomycin; Luminex; all tested concentrations. An outline of the steps: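 T-cells from secondary lymphatic organs of naïve C57BL/6 mice, stimulated with PMA/Ionomycin or IFN-γ; supernatant cytokines measured by 13-plex FACS 48 h and 72 h after stimulation. In another run, PMA/Ionomycin-stimulated cells received compounds at 10^−7, 10^−9 and 10^−11 M, with IFN-γ, IL-17 and IL-10 measured by Luminex.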

The next data set relates to primary human T-cells. Briefly: Cytokine secretion on protein level in activated primary human T-cells (13-plex FACS / Luminex, supernatant). The data set is classed as cell-based. As to conditions: human T cells; PMA/Ionomycin; Luminex; all tested concentrations. An outline of the steps:
as §4

Data set [2] concerns human keratinocytes (HaCaT). Briefly: Gene expression of pro-inflammatory cytokines (RT-qPCR) in human keratinocytes (HaCaT). Type of data set: cell-based. The conditions noted are these: HaCaT cells; PMA/Ionomycin; 10^−7 M, 10^−9 M and 10^−11 M.
Excerpt: as §1, §2, §3

A further data set deals with primary human T cells. Briefly: Gene expression of pro-inflammatory cytokines (RT-qPCR) in primary human T cells. Type of data set: cell-based. As to conditions: PMA/Ionomycin, 10^−7 M, 10^−9 M and 10^−11 M.
Excerpt: as §1, §2, §3

The subject of a further data set is Balb/c mice. Briefly: Imiquimod-induced psoriasis in mice. The conditions noted are these: i.v.; for mRNA expression of IFN-γ and IL-36 in lesional skin: compared to vehicle control; for clinical score: day 9. Type of data set: in vivo. How it is done: Psoriasis in Balb/c mice is induced by daily application of topical Imiquimod for 8 days. Animal are treated with the test items (topical or systemically). On day 9 the skin phenotype is characterized using a clinical score system (0=normal mouse skin; 1=mild reddening; 2=erythema; 3=erythema, swelling; 4=erythema, swelling, scaling; 5=erythema, swelling, scaling, (bloody) lesions). Skin is analyzed histologically. Lymph nodes are analyzed by flow cytometry and RT-qPCR. mRNA expression in lesional skin is analyzed by RT-qPCR. Cytokine concentrations in the serum are assessed using the Luminex technology.

The nature of the next data set: in vitro. The conditions noted are these: human, tissue homogenate, % of the starting concentration.
The conditions of data set [3]: human, tissue homogenate, 1000 min, 160 μg/ml.
Protocol: (§5) Human skin samples (ear skin, umbilical skin and juvenile foreskin) are combined and frozen in liquid nitrogen and homogenized. The resulting human skin homogenate is transferred portionwise (50-70 mg) to Protein LoBind Tubes (2 ml) and stored at −32° C. until use. At the beginning of the stability study the human skin homogenate is thawed. An aqueous solution of the tripeptide compound (1500 μl) with or without 0.02% sodium azide (cpeptide=160 μg/ml) is added and the mixture is incubated at 32° C. Samples were taken at 0, 30, 100, 300 and 1000 minutes. 100 μl sample are diluted with 1900 μl methanol containing an internal standard and analyzed with HPLC-MS. All analyses are performed in triplicate.

Where a SMILES comes first, the peptide text is derived from it. [ ]: non-standard residue; d: D form. Tle = CC(C)(C)[C@H](N)C(=O)O; Aib = CC(C)(N)C(=O)O

For orientation: share remaining means what is left of the initial amount, in per cent. Read a low share remaining as a greater loss.

Protocol for in vitro: as §5

On to “N^α,N^α-dimethyl-(L)-Nle-(L)-Pro-Aib-OH [Example 16]”, for which the “expression of pro-inflammatory cytokines IL-1β, IL-6 and TNF-α on mRNA level” value (shortened to “expression … on mRNA level”) in the data set with primary murine T cells is “reduced expression”. Besides, in [1], the “concentration of pro-inflammatory cytokine IFN-γ in the supernatants” value is recorded as “reduced”. Further, in the data set with primary murine T-cells, the “concentration of anti-inflammatory cytokine IL-10 in the supernatants” value is “increased”; the “concentrations of pro-inflammatory cytokines IFN-γ and IL-17 in the supernatants” value (“concentrations … in the supernatants” for short) is “reduced”. For the same compound, in the data set with primary human T-cells, the “concentration of anti-inflammatory cytokine IL-10 in the supernatants” value is “increased”; the “concentrations … in the supernatants” value is recorded as “reduced”. Also, in [2], the “expression … on mRNA level” value is “reduced expression”. The “expression … on mRNA level” value with primary human T cells is recorded as “reduced expression”. Further, in the data set on Balb/c mice, the “concentrations of TNF-α and IL-17 in the serum” value (“concentrations … in the serum” below) is reported as “reduced”; the epidermal thickness entry is “reduced”; the “mRNA expression of IFN-γ and IL-36 in lesional skin” value (“mRNA expression” for short) was “reduced”; the clinical score entry was “reduced”.

The compound `CC(C)(C)[C@H](NC(=O)[C@@H]1CCCN1C(=O)[C@@H](N)CCCCN)C(=O)O` [Example 9, H-(L)-Lys-(L)-Pro-(L)-t-butyl-Gly-OH] (H-Lys-Pro-[Tle]-OH) had an amount remaining at 5 h, 160 μg/ml in “in vitro” of 58%.

In the case of H-[dF]-Pro-[Aib]-OH [Example 15], the “expression … on mRNA level” value with primary murine T cells is recorded as “reduced expression”. In addition, the “concentration of pro-inflammatory cytokine IFN-γ in the supernatants” value in [1] is given as “reduced”. In the data set with primary murine T-cells, the “concentration of anti-inflammatory cytokine IL-10 in the supernatants” value is reported as “increased”; the “concentrations … in the supernatants” value is reported as “reduced”. Besides, in the data set with primary human T-cells, the “concentration of anti-inflammatory cytokine IL-10 in the supernatants” value is on record as “increased”; the “concentrations … in the supernatants” value is reported as “reduced”. The “expression … on mRNA level” value in data set [2] was “reduced expression”. In addition, in the data set with primary human T cells, the “expression … on mRNA level” value is given as “reduced expression”. For the same compound, in the data set on Balb/c mice, the “concentrations … in the serum” value is given as “reduced”; the epidermal thickness entry is on record as “reduced”; the “mRNA expression” value is listed as “reduced”; the clinical score result is “reduced”.

For `CC(C)(NC(=O)[C@@H]1CCCN1C(=O)[C@@H](N)CCCCN)C(=O)O` [Example 8, H-(L)-Lys-(L)-Pro-Aib-OH] (H-Lys-Pro-[Aib]-OH), the fraction remaining at 1000 min, 160 μg/ml in the data set “in vitro” was found to be 40%. In addition, in data set [3], the “% of the starting concentration” value is on record as 47%.

As to “N^α,N^α-dimethyl-(L)-Phe-(t)-Pro-Aib-OH [Example 17]”, the “expression … on mRNA level” value in the data set on primary murine T cells is recorded as “reduced expression”. In addition, the “concentration of pro-inflammatory cytokine IFN-γ in the supernatants” value in [1] is on record as “reduced”. In the data set on primary murine T-cells, the “concentration of anti-inflammatory cytokine IL-10 in the supernatants” value is reported as “increased”; the “concentrations … in the supernatants” value is reported as “reduced”. For the same compound, in the data set with primary human T-cells, the “concentration of anti-inflammatory cytokine IL-10 in the supernatants” value is listed as “increased”; the “concentrations … in the supernatants” value is given as “reduced”. For the same compound, in data set [2], the “expression … on mRNA level” value is “reduced expression”. For the same compound, the “expression … on mRNA level” value in the data set with primary human T cells is listed as “reduced expression”. In addition, in the data set with Balb/c mice, the “concentrations … in the serum” value is “reduced”; the epidermal thickness entry was “reduced”; the “mRNA expression” value was “reduced”; the clinical score entry is “reduced”.

As for “N^α-methyl-(D)-Phe-(L)-Pro-Aib-OH [Example 14]”, in the data set with primary murine T cells, the “expression … on mRNA level” value is recorded as “reduced expression”. The “concentration of pro-inflammatory cytokine IFN-γ in the supernatants” value in [1] is “reduced”. In addition, in the data set with primary murine T-cells, the “concentration of anti-inflammatory cytokine IL-10 in the supernatants” value was “increased”; the “concentrations … in the supernatants” value is recorded as “reduced”. For the same compound, in the data set with primary human T-cells, the “concentration of anti-inflammatory cytokine IL-10 in the supernatants” value was “increased”; the “concentrations … in the supernatants” value is “reduced”. For the same compound, the “expression … on mRNA level” value in data set [2] is reported as “reduced expression”. Further, the “expression … on mRNA level” value with primary human T cells is recorded as “reduced expression”. In addition, in the data set on Balb/c mice, the “concentrations … in the serum” value is recorded as “reduced”; the epidermal thickness result was “reduced”; the “mRNA expression” value was “reduced”; the clinical score result is recorded as “reduced”.
